Assay results: PMC4260745, “Modulation of A1 and A2B adenosine receptor activity: a new strategy to sensitise glioblastoma stem cells to chemotherapy” (Cell Death & Disease, 2014)

Target: T1, A2BAR (A2B adenosine receptor) (Homo sapiens, UniProt P29275)
T1 construct: gene ADORA2B
T1 sequence (P29275 1-332): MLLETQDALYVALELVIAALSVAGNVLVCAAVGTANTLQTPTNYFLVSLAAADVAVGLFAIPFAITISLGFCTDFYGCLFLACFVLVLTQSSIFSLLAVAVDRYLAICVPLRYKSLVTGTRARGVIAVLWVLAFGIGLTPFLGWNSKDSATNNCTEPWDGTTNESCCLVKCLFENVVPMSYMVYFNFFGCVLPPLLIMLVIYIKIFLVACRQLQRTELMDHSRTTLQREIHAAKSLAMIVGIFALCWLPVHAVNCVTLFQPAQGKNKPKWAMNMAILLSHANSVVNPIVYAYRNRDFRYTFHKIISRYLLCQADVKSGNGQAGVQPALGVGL
Test: […]GTPγS binding, membranes of U343MG-derived CSCs (endogenous receptor)
Format: biochemical

Compound N#Cc1c(N)nc(SCC(N)=O)c(C#N)c1-c1ccc(OCC2CC2)cc1 [BAY606583, 2-[6-Amino-3,5-dicyano-4-[4-(cyclopropylmethoxy)-phenyl]pyridin-2-ylsulfanyl]acetamide] has an EC50 of 1.9 ± 0.2 nM.
